From article PMC5874133 (Science immunology, 2018)

Test system: ZnT8_186–194-reactive CD8^+ T-cell clones
Assay type: cell-based, human
Conditions: MMr co-staining (Fig. 7D) and in-vitro recall (Fig. 7E); clones D222D 2, D349D 178B9, H017N A1, H328C 9C8

KAANIVLTV [B. stercoris mimotope] was tested, and the “ZnT8_186–194-reactive clones cross-recognizing the mimotope” value was 1 of 4.
